Results reported in patent publication US20060148758A1, “Method for blood glucose control in a mammal by N-acylated glucosamines” (priority 2005, published 2006).

Columns and labels:
Format in all cases: in vivo, rat
blood glucose = assay: Blood glucose after oral gavage in 24 h fasted rats (glucose oxidase kit); details: fasted 24 h, gavage of 0.736 M in 3 ml saline; for increase in blood glucose compared with saline and glucose groups: male rats, 0-150 min
Protocol: In the experiments performed and described herein, there were four groups of Spague Dawley type male rats, weighting approximately 300 g each, consisting of four (4) animals in each group. The animals were fed freely on standard rat chow and were then fasted for 24 hours. At the end of this period, said animals were lightly anaesthetized with nitrogen oxide and halothane, the body temperature being maintained with a heat lamp, and the femoral artery was cannulated, with a heparinized catheter and syringe, so that multiple blood samples could be obtained at serial time points. The test compounds were administered by gavaging the animals, said compounds having being dissolved in 3 ml of normal saline. The concentrations of the compounds administered to three groups of animals were: 0.736 M (550 mg in 3 ml of saline) of N-butyryl-D-glucosamine (designated as GlcNBu), or 0.736 M (398 mg in 3 ml of saline) of D-glucose (designated as Glc), or a combination of 0.736 M of GlcNBu and 0.736 M Glc dissolved together in 3 ml of saline. No compound was administered to the fourth group of animals (which consisted of a control group) and animals in this group were gavaged instead with 3 ml of normal saline.
Blood (0.4 ml) was collected at 10 min before the gavage (designated as −10 min in the accompanying FIG. 1), immedietly before the gavage (designated as 0 min) and at the following time points (timed in minutes after time 0) 5, 15, 30, 60, 90, 120 and 150, as shown in the accompanying figure. The glucose concentration in the blood was determined by a commercial glucose oxidase kit, designed for the determination of blood glucose in the blood of patients with diabetes. The determinations were done in triplicate for each time point and for each of the four animals in each of the four groups.
With reference to FIG. 1, each point of the graph represents the mean of the blood glucose concentrations obtained from the four rats in each group of animals. […]

[1] = Lean body mass and fat content by Dual Energy X-ray Absortiometry after 6 months daily oral feeding of control and ovariectomised rats; details: daily oral feeding 6 months (GlcNBu 200 mg/kg/day or equimolar Glc)
Protocol: In another experiment, there were four Groups of Sprague Dawley type female rats, with eight animals in each group, of approximately 250 g in weight. Two of the said groups underwent surgical ovariectomy and will be referred as the ovariectomised Groups (OVX). […] One C group and one OVX Group were fed GlcNBu, 200 mg/kg/day orally and one C group and one OVX Group were fed an equimolar amount of Glc daily. The daily feedings continued for all of the animals for a period of 6 months. At the end of the 6 month period the animals were euthanized, blood was obtained by cardiac puncture for glucose measurements, 24 hours after the administration of the Glc or GlcNBu, and their body fat and lean body mass was estimated, using a Hologic 4500 Dual Energy X-ray Absortiometry instrument, with small animal software.
It was previously known that ovariectomy increases the body weight and the fat content of animals undergoing this procedure. The results for the lean body mass and the fat content are shown in Table 1 and presented as the mean values±the standard deviations (SD) for each group of Animals.

[2] = Incorporation of radioactivity from radiolabelled GlcNBu into plasma glucose, glucosamine or N-acetylglucosamine (HPLC of acetonitrile-soluble plasma fraction); details: rats, oral or IP, plasma acetonitrile-soluble fractions up to 4 hour, amine column HPLC
Protocol: In order to test whether GlcNBu, in fact, was incorporated into serum glucose, or glucosamine, radiolabelled GlcNBu was prepared from [^3H] glucosamine and administered either orally or intra-peritoneally (IP) to rats, under identical conditions shown in FIG. 1. Plasma was sampled serially and plasma proteins were precipitated with acetonitrile and the radioactivity into the acetonitrile-soluble fraction containing GlcNBu metabolites was quantified. It can be seen that the radioactive profile from the oral administration of [^3H] GlcNBu is different than the glucose concentration profiles (FIG. 1). Acetonitrile-soluble fractions illustrated in FIG. 2, including the 4 hour time point were analyzed by HPLC, using an amine column and acetonitrile/water mixtures as the mobile phase (1 mL/min flow rate), Absorbance at 195 nm and radioactivity of 2 mL fractions were monitored. Radiolabelled and non-radiolabelled standards of GlcNBu, glucose, glucosamine, N-acetylglucosamine and various disaccharides were used as standards for the column. […] It is, therefore, unlikely that a significant proportion of orally fed GlcNBu is converted to glucose, glucosamine or N-acetylglucosamine, over the time course of the study. Also, glucose or glucosamine are not known to be converted into GlcNBu by animal tissues.

[3] = control (C, non-ovariectomised) female rats
[4] = ovariectomised (OVX) female rats

| Structure (SMILES) | blood glucose concentration rose from time 0 to (blood glucose; male Sprague Dawley rats, followed to 150 min, mean of 4 rats) | Fat content (g, mean ± SD) [1, 3] | Lean body mass (g, mean ± SD) [1, 3] | Fat content (g, mean ± SD) [1, 4] | Lean body mass (g, mean ± SD) [1, 4] | increase in blood glucose compared with saline and glucose groups (blood glucose) | increase in blood glucose compared with saline and glucose groups (blood glucose; listed as N-butyryl-D-glucosamine) | incorporation of radioactivity into glucose, glucosamine or N-acetylglucosamine [2] |
| --- | --- | --- | --- | --- | --- | --- | --- | --- |
| O=C[C@H](O)[C@@H](O)[C@H](O)[C@H](O)CO [Glc, D-glucose, reference compound] | ~7 mmol/L | 77.45 ± 21.0 g | 283.93 ± 21.5 g | 112.94 ± 30.9 g | 296.87 ± 6.2 g | – | – | – |
| CCCC(=O)N[C@H]1C(O)O[C@H](CO)[C@@H](O)[C@@H]1O (stereo partly drawn) [GlcNBu, N-butyryl-D-glucosamine] | – | 74.57 ± 23.2 g | 264.02 ± 12.1 g | 126.08 ± 38.4 g | 307.52 ± 34.0 g | higher than those gavaged with saline but lower than those rats gavaged with glucose | lower blood glucose | – |
| CCCC(=O)N[C@H]1C(O)O[C@H](CO)[C@@H](O)[C@@H]1O (stereo partly drawn) [[^3H] GlcNBu] | – | – | – | – | – | – | – | no significant incorporation of radioactivity |
